The target of this assay is cAMP and cAMP-inhibited cGMP 3',5'-cyclic phosphodiesterase 10A (Homo sapiens, UniProt Q9Y233). Nature of the assay: Reversible binding affinity to human full length His-tagged PDE10A2 assessed as half-life on the enzyme measured at 25 degC by surface plasmon resonance analysis. For orientation: Surface plasmon resonance follows binding to a sensor surface in real time, without labels.
Sequence of cAMP and cAMP-inhibited cGMP 3',5'-cyclic phosphodiesterase 10A (Q9Y233 whole entry): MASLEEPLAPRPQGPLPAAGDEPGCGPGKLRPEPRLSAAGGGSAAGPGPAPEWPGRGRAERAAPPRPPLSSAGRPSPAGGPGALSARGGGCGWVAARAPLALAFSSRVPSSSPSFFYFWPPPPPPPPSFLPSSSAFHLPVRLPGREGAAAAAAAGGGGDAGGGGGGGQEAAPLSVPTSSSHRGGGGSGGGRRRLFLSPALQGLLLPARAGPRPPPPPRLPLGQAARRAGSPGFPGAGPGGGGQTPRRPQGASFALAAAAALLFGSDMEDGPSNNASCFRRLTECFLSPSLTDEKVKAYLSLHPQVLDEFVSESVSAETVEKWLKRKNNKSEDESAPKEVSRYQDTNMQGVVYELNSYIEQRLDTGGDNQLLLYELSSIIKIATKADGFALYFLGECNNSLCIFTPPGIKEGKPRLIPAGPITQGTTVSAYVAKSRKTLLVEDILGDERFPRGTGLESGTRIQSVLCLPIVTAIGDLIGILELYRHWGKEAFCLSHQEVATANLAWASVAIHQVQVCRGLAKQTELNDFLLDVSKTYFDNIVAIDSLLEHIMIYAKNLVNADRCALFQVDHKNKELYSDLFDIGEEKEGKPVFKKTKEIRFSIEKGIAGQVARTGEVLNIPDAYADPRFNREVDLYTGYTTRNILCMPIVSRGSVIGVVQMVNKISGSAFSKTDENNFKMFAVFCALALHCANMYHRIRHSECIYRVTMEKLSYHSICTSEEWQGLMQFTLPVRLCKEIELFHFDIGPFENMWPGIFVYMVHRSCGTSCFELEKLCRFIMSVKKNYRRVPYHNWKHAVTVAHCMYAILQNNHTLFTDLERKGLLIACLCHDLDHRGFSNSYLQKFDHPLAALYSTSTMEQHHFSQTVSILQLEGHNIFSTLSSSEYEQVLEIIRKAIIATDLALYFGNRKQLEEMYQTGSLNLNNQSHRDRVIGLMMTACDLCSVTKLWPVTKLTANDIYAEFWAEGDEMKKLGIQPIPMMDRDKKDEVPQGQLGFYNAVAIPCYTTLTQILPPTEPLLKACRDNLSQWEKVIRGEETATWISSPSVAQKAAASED

`Cc1ccc([C@H]2C[C@@H]2COc2cc(NCc3nnc(C)s3)nc(C)n2)nc1` [MK-8189]: the T1/2 came to 6.7 min.

For the origin of these results see ChEMBL document CHEMBL5316310, “Discovery of MK-8189, a Highly Potent and Selective PDE10A Inhibitor for the Treatment of Schizophrenia” (J Med Chem, 2023).
